# Results: US5196327A, “Process for producing antifungal fermentation products and compositions thereof” (Merck & Co., Inc., priority 1991, dated 1993)
# Read-outs that look alike come from different tables or passages of the source.
# Columns and labels:
# [1] = test system: Aspergillus fumigatus MF4839; assay: Agar dilution assay, MIC; type: cell-based; conditions: strain MF4839, yeast nitrogen base dextrose agar; for MIC: read-out: Minimum Inhibitory Concentration
# Method: (§1) In separate operations, in vitro antifungal activity determinations were carried out with Compound IB and with Compound IC against a panel of filamentous and yeast-like fungi employing yeast nitrogen base dextrose agar medium. In carrying out the assay, the compound to be tested was solubilized in 10 percent dimethyl sulfoxide (DMSO) supplemented with one drop of Tween 20. Two-fold dilutions were made with sterile distilled water/10% DMSO to obtain final concentrations in the agar dilution assay plates ranging from 64 to 0.06 μg/ml in the operation with Compound IB and from 128 to 0.06 μg/ml in the operation with Compound IC.
# (§2) Nystatin (commercially available antifungal agent) was used as a positive antifungal control.
# Ca. guilliermondi MY1019 = assay: Agar dilution assay, MIC; type: cell-based; conditions: strain MY1019, yeast nitrogen base dextrose agar; for MIC: read-out: Minimum Inhibitory Concentration
# Method: as §1, §2
# Ca. krusei MY1020 = assay: Agar dilution assay, MIC; type: cell-based; conditions: strain MY1020, yeast nitrogen base dextrose agar; for MIC: read-out: Minimum Inhibitory Concentration
# Method: as §1, §2
# Ca. parapsilosis MY1009 = assay: Agar dilution assay, MIC; type: cell-based; conditions: strain MY1009, yeast nitrogen base dextrose agar; for MIC: read-out: Minimum Inhibitory Concentration
# Method: as §1, §2
# Ca. parapsilosis MY1010 = assay: Agar dilution assay, MIC; type: cell-based; conditions: strain MY1010, yeast nitrogen base dextrose agar; for MIC: read-out: Minimum Inhibitory Concentration
# Method: as §1, §2
# Ca. stellatoidea MY1017 = assay: Agar dilution assay, MIC; type: cell-based; conditions: strain MY1017, yeast nitrogen base dextrose agar; for MIC: read-out: Minimum Inhibitory Concentration
# Method: as §1, §2
# Candida albicans MY1058 = assay: Agar dilution assay, MIC; type: cell-based; conditions: strain MY1058, yeast nitrogen base dextrose agar; for MIC: read-out: Minimum Inhibitory Concentration
# Method: as §1, §2
# [2] = test system: Cryptococcus neoformans MY1051; assay: Agar dilution assay, MIC; type: cell-based; conditions: strain MY1051, yeast nitrogen base dextrose agar; for MIC: read-out: Minimum Inhibitory Concentration
# Method: as §1, §2
# [3] = test system: Penicillium italicum MF2819; assay: Agar dilution assay, MIC; type: cell-based; conditions: strain MF2819, yeast nitrogen base dextrose agar; for MIC: read-out: Minimum Inhibitory Concentration
# Method: as §1, §2
# [4] = test system: Torulopsis glabrata MY1059; assay: Agar dilution assay, MIC; type: cell-based; conditions: strain MY1059, yeast nitrogen base dextrose agar; for MIC: read-out: Minimum Inhibitory Concentration
# Method: as §1, §2
# Cr. neoformans MY1146 = assay: Agar dilution assay, MIC; type: cell-based, Cryptococcus neoformans; conditions: strain MY1146, yeast nitrogen base dextrose agar; for MIC: read-out: Minimum Inhibitory Concentration
# Method: as §1, §2
# Ca. albicans MY0992 = assay: Agar dilution assay, MIC; type: cell-based, Candida albicans; conditions: strain MY0992, yeast nitrogen base dextrose agar; for MIC: read-out: Minimum Inhibitory Concentration
# Method: as §1, §2
# Ca. albicans MY1013 = assay: Agar dilution assay, MIC; type: cell-based, Candida albicans; conditions: strain MY1013, yeast nitrogen base dextrose agar; for MIC: read-out: Minimum Inhibitory Concentration
# Method: as §1, §2
# Ca. albicans MY1029 = assay: Agar dilution assay, MIC; type: cell-based, Candida albicans; conditions: strain MY1029, yeast nitrogen base dextrose agar; for MIC: read-out: Minimum Inhibitory Concentration
# Method: as §1, §2
# Ca. albicans MY1055 = assay: Agar dilution assay, MIC; type: cell-based, Candida albicans; conditions: strain MY1055, yeast nitrogen base dextrose agar; for MIC: read-out: Minimum Inhibitory Concentration
# Method: as §1, §2
# Ca. tropicalis MY1011 = assay: Agar dilution assay, MIC; type: cell-based, Candida tropicalis; conditions: strain MY1011, yeast nitrogen base dextrose agar; for MIC: read-out: Minimum Inhibitory Concentration
# Method: as §1, §2
# Ca. tropicalis MY1012 = assay: Agar dilution assay, MIC; type: cell-based, Candida tropicalis; conditions: strain MY1012, yeast nitrogen base dextrose agar; for MIC: read-out: Minimum Inhibitory Concentration
# Method: as §1, §2
# [5] = test system: Ca. pseudotropicalis MY1040; assay: Agar dilution assay, MIC; type: cell-based, Candida pseudotropicalis; conditions: strain MY1040, yeast nitrogen base dextrose agar; for MIC: read-out: Minimum Inhibitory Concentration
# Method: as §1, §2
# Ca. rugosa MY1022 = assay: Agar dilution assay, MIC; type: cell-based, Candida rugosa; conditions: strain MY1022, yeast nitrogen base dextrose agar; for MIC: read-out: Minimum Inhibitory Concentration
# Method: as §1, §2
# Sac. cerevisiae MY1027 = assay: Agar dilution assay, MIC; type: cell-based, Saccharomyces cerevisiae; conditions: strain MY1027, yeast nitrogen base dextrose agar; for MIC: Saccharomyces cerevisiae, read-out: Minimum Inhibitory Concentration
# Method: as §1, §2
# A. flavus MF0383 = assay: Agar dilution assay, MIC; type: cell-based, Aspergillus flavus; conditions: strain MF0383, yeast nitrogen base dextrose agar; for MIC: read-out: Minimum Inhibitory Concentration
# Method: as §1, §2
# [6] = test system: panel of representative yeasts, filamentous fungi (molds) and bacteria; assay: Antifungal disc diffusion assay, panel; type: cell-based; conditions: panel of organisms
# From the text: (§3) The antifungal activity of the compounds may be detected in an antifungal assay employing disc diffusion methods against a panel of representative yeasts, filamentous fungi (molds) and bacteria.
# (§4) The filamentous fungi used in the assay are Cochliobolus miyabeanus, Penicillium sp. (three strains), Aspergillus niger, Trichoderma sp., Phoma sp., Trichoderma lignorum, Fusarium oxysporum, Ustilago maydis, Ceratocystis ulmi, Alternaria solani, Verticillium serrae, Botrytis allii, Scopulariopsis communis, Cephalosporium sp., Cercospora beticola, […], Rhizomucor miehei, Aspergillus flavus and Aspergillus fumigatus.
# (§5) The yeasts employed in the assay are Saccharomyces cerevisiae, Candida albicans, […], Candida tropicalis, Candida rugosa, Brettanomyces bruxellensis, Torulospora hansenii, Candida quilliermondi, Candida pseudotropicalis, Torulopsis glabrata, Cryptococcus albidus, and Cryptococcus laurentii.
# The bacteria employed in the assay are Streptomyces sp., Acholeplasma laidlawii and Bacillus subtilis.
# (§6) For carrying out the assay, seeded assay plates are prepared in the following manner according to the type of assay strain.
# (§7) Inocula for filamentous fungi are prepared by scraping the surface of stock plates maintained on potato dextrose agar with a moistened sterile dacron swab. The spores and mycelia are then suspended in 10 milliliters of sterile potato dextrose broth and adjusted to 70 percent transmission at 660 nm.
# (§8) Inocula for yeasts and bacterial strains are prepared from overnight broth cultures then diluted into potato dextrose agar to a final concentration of either 40 percent or 70 percent transmission at 660 nm.
# When the organism is Acholephasma laidlawii, it is suspended in brain heart infusion broth supplemented with 2.5 percent yeast extract and 20 percent heat inactivated horse serum, and the broth adjusted to a final concentration of 60 percent transmission at 660 nm. […]
# (§9) Following incubation, the inhibition zones are measured and recorded. […]
# Ustilago maydis = assay: Antifungal disc diffusion assay; type: cell-based
# From the text: as §3, §4, §6, §7
# (§10) The seeded agar media thus prepared are dispensed into petri dishes for assays (11 milliliters per dish).
# The samples to be tested for production of antifungal agent are applied to 6.2 mm. filter paper discs (25 microliter/disc) and air dried at 24° C. […]
# as §9
# [7] = test system: Candida albicans (five strains); assay: Antifungal disc diffusion assay; type: cell-based; conditions: five strains of Candida albicans
# From the text: as §3, §5, §6, §8
# For three strains of Candida albicans and one strain of Saccharomyces cerevisiae, sterile saline is employed in place of potato dextrose broth. Assay plates are prepared by diluting the inoculum into appropriate molten agar medium, cooled to 45° C. to obtain a final concentration of 4 percent.
# The seeded agar media thus prepared are dispensed into petri dishes for assays (11 milliliters per dish). […]
# as §9
# Candida tropicalis = assay: Antifungal disc diffusion assay; type: cell-based
# From the text: as §3, §5, §6, §8, §10
# (§11) The samples to be tested for production of antifungal agent are applied to 6.2 mm. filter paper discs (25 microliter/disc) and air dried at 24° C. When the sample to be tested is crude broth, it may be centrifuged prior to application. The discs bearing the material to be tested are then applied employing sterile conditions to the seeded assay plates and the samples rewet with 25 percent sterile aqueous dimethylsulfoxide (25 μl/disc). The assay plates are then incubated at either 28° C. or 37° C. for 24 hours. In one of the assays for Bacillus subtilis, the sample is applied to a disc previously impregnated with 4M potassium chloride at 25 μl/disc and then air dried.
# (§12) Following incubation, the inhibition zones are measured and recorded. The measurements are made from the extreme edge where growth differs from the background zone. The growths are noted as to appearance as fuzzy edge and clear center, hazy throughout, slightly hazy, very hazy or ringed.
# Cryptococcus albidus = assay: Antifungal disc diffusion assay; type: cell-based
# From the text: as §3, §5, §6, §8, §10, §11, §12
# Torulospora hansenii = assay: Antifungal disc diffusion assay; type: cell-based
# From the text: as §3, §5, §6, §8, §10, §11, §12
# Aspergillus niger = assay: Antifungal disc diffusion assay; type: cell-based
# From the text: as §3, §4, §5, §6
# Inocula for filamentous fungi are prepared by scraping the surface of stock plates maintained on potato dextrose agar with a moistened sterile dacron swab. […]
# as §9
smiles,measurement,setting,value
"C[C@@H]1[C@H](O)[C@@H](C)/C=C/C=C/CC/C=C/C=C/C=C/C=C/C(O[C@H]2O[C@H](C)[C@@H](O)[C@H](N)[C@@H]2O)CC2O[C@](O)(CC(O)C(O)CCC(O)CC(O)CC(O)CC(=O)O[C@H]1C)CC(O)C2C(=O)O (stereo partly shown) [Nystatin, reference compound]",Minimum Inhibitory Concentration,[1],2 µg/mL
same,Minimum Inhibitory Concentration,Ca. guilliermondi MY1019,2 µg/mL
same,Minimum Inhibitory Concentration,Ca. krusei MY1020,2 µg/mL
same,Minimum Inhibitory Concentration,Ca. parapsilosis MY1009,4 µg/mL
same,Minimum Inhibitory Concentration,Ca. parapsilosis MY1010,2 µg/mL
same,Minimum Inhibitory Concentration,Ca. stellatoidea MY1017,2 µg/mL
same,Minimum Inhibitory Concentration,Candida albicans MY1058,2 µg/mL
same,Minimum Inhibitory Concentration,[2],2 µg/mL
same,Minimum Inhibitory Concentration,[3],2 µg/mL
same,Minimum Inhibitory Concentration,[4],1 µg/mL
same,Minimum Inhibitory Concentration,Cr. neoformans MY1146,2 µg/mL
same,Minimum Inhibitory Concentration,Ca. albicans MY0992,2 µg/mL
same,Minimum Inhibitory Concentration,Ca. albicans MY1013,2 µg/mL
same,Minimum Inhibitory Concentration,Ca. albicans MY1029,2 µg/mL
same,Minimum Inhibitory Concentration,Ca. albicans MY1055,2 µg/mL
same,Minimum Inhibitory Concentration,Ca. tropicalis MY1011,2 µg/mL
same,Minimum Inhibitory Concentration,Ca. tropicalis MY1012,> 128 µg/mL
same,Minimum Inhibitory Concentration,[5],1 µg/mL
same,Minimum Inhibitory Concentration,Ca. rugosa MY1022,4 µg/mL
same,Minimum Inhibitory Concentration,Sac. cerevisiae MY1027,1 µg/mL
same,Minimum Inhibitory Concentration,A. flavus MF0383,2 µg/mL
"CCCCCCC(O)CCCCCCC=CC(O)C(O)C(O)C(NC(=N)N)C(=O)O (stereo not shown) [Compound IA, 2-guanidino-3,4,5,14-tetrahydroxy-6-eicosenoic acid]",antifungal activity,[6],good activity against almost all of the organisms
same,antifungal activity,[6]; listed as I-A,activity against a number of fungal organisms
same,antifungal activity,Ustilago maydis,good activity
same,antifungal activity,Ustilago maydis; listed as I-A,especially good activity
same,antifungal activity,[7],good activity
same,antifungal activity,Candida tropicalis,good activity
same,antifungal activity,Cryptococcus albidus,good activity
same,antifungal activity,Torulospora hansenii,good activity
same,antifungal activity,Aspergillus niger,good activity
"CCCCCCC(O)CCCCCCC=CC(OC(C)=O)C(O)C(O)C(N)C(=O)O (stereo not shown) [Compound IC, 5-acetyloxy-2-amino-3,4,14-trihydroxy-6-eicosenoic acid]",MIC,[1],64 mg/L
same,MIC,Ca. guilliermondi MY1019,> 128 mg/L
same,MIC,Ca. krusei MY1020,> 128 mg/L
same,MIC,Ca. parapsilosis MY1009,> 128 mg/L
same,MIC,Ca. parapsilosis MY1010,8 mg/L
same,MIC,Ca. stellatoidea MY1017,32 mg/L
same,MIC,Candida albicans MY1058,32 mg/L
same,MIC,[2],2 mg/L
same,MIC,[3],32 mg/L
same,MIC,[4],16 mg/L
same,MIC,Cr. neoformans MY1146,2 mg/L
same,MIC,Ca. albicans MY0992,128 mg/L
same,MIC,Ca. albicans MY1013,128 mg/L
same,MIC,Ca. albicans MY1029,> 128 mg/L
same,MIC,Ca. albicans MY1055,128 mg/L
same,MIC,Ca. tropicalis MY1011,32 mg/L
same,MIC,Ca. tropicalis MY1012,2 mg/L
same,MIC,[5],2 mg/L
same,MIC,Ca. rugosa MY1022,> 128 mg/L
same,MIC,Sac. cerevisiae MY1027,32 mg/L
same,MIC,A. flavus MF0383,64 mg/L
"CCCCCCC(O)CCCCCCC=CC(O)C(O)C(O)C(N)C(=O)O (stereo not shown) [Compound IB, 2-amino-3,4,5,14-tetrahydroxy-6-eicosengoic acid]",MIC,[1],64 mg/L
same,MIC,Ca. guilliermondi MY1019,> 64 mg/L
same,MIC,Ca. krusei MY1020,> 64 mg/L
same,MIC,Ca. parapsilosis MY1009,32 mg/L
same,MIC,Ca. parapsilosis MY1010,2 mg/L
same,MIC,Ca. stellatoidea MY1017,16 mg/L
same,MIC,Candida albicans MY1058,16 mg/L
same,MIC,[2],2 mg/L
same,MIC,[3],> 64 mg/L
same,MIC,[4],16 mg/L
same,MIC,Cr. neoformans MY1146,2 mg/L
same,MIC,Ca. albicans MY0992,32 mg/L
same,MIC,Ca. albicans MY1013,32 mg/L
same,MIC,Ca. albicans MY1029,64 mg/L
same,MIC,Ca. albicans MY1055,32 mg/L
same,MIC,Ca. tropicalis MY1011,16 mg/L
same,MIC,Ca. tropicalis MY1012,2 mg/L
same,MIC,[5],0.5 mg/L
same,MIC,Ca. rugosa MY1022,> 64 mg/L
same,MIC,Sac. cerevisiae MY1027,16 mg/L
same,MIC,A. flavus MF0383,64 mg/L
same,antifungal activity,[6],consistently active against most of the 41 of the filamentous fungi and yeasts
